Laboratory results reported in patent US11505532B2, “SSAO inhibitor” (SHANDONG DANHONG PHARMACEUTICAL CO., LTD., priority 2017, dated 2022).

What was measured:
[1] = Distribution of compounds in liver and blood of CD-1 mice; assay type: in vivo; settings: single oral dose; for Liver Concentration (@1.0 hour) / Plasma Concentration (@1.0 hour): 1 hour after administration; for Liver Concentration/Plasma Concentration (@1.0 hour) / Liver Concentration/Plasma Concentration (@4.0 hour): ratio; for Liver Concentration (@4.0 hour) / Plasma Concentration (@4.0 hour): 4 hours after administration
Experimental: Experimental purpose: distribution of compounds in liver and blood of CD-1 mice was tested;
CD-1 Mice (male, 25-35 g, 6-9 weeks old, Shanghai Slack);
Experimental procedure: after oral administration, the drug was distributed in the liver and blood of rodents, candidate compounds in the experiment were formulated into a clear solution to be administered to mice in a single oral dose. The oral solvent was a certain proportion of an aqueous solution of hydroxypropyl β-cyclodextrin or a physiological saline solution. The concentration of the drug in the liver and blood was measured at 1 hour and 4 hours after administration.

[2] = biological target: T1, VAP-1/SSAO (Homo sapiens (Human), UniProt Q16853); assay: Human VAP-1 enzyme activity assay (Amplex Red Monoamine Oxidase kit); assay type: biochemical; settings: 10 nM VAP-1 enzyme, 30 min preincubation, benzylamine substrate; read-out: Human Recombinant VAP-1/SSAO Enzyme Inhibitory Activity IC50
Experimental: Human VAP-1 Enzyme Activity Assay:
The inhibition of the sample on VAP-1 enzyme activity was measured by using an Amplex® Red Monoamine Oxidase kit (Invitrogen #A12214). 100 nL of the gradiently-diluted to-be-tested compound (solvent DMSO) was added to a 384-well plate. 25 μL of 10 nM VAP-1 enzyme solution was added and incubated for 30 minutes at room temperature. A substrate mixture of VAP-1 enzyme (200 μM Amplex Red, 1 U/mL HRP, 1 mM Benzylamine) was added and incubated for 60 minutes at room temperature. After the incubation, the fluorescent signal was read with a microplate reader Envision (excitation light wavelength 530-560 nm, emission light wavelength 590 nm). The fluorescence signal value after the background signal was removed was analyzed by Prism software, and the IC50 of the sample against the VAP-1 enzyme was calculated.

[3] = biological target: T1, VAP-1/SSAO; assay: VAP-1 cell activity assay (HUVEC or CHO cells transfected with VAP-1/pCDNA(3.1) plasmid, Amplex Red); assay type: cell-based; settings: HUVEC or CHO cells transfected with VAP-1 plasmid; read-out: VAP-1/SSAO Cellular Inhibitory Activity IC50
Experimental: The inhibition of the sample on VAP-1 cell activity was measured by using an Amplex® Red Monoamine Oxidase kit (Invitrogen #A12214).
The cultured HUVEC or CHO cells were plated into a 6-well plate at a density of 0.8 M/well, placed in a 37° C., 5% CO2 incubator for incubation for 24 hours, and then the cells was transferred with a Lipo2000 reagent and a VAP-1/pCDNA (3.1) plasmid, and liquid was changed for the cells after 5 hours (Lipo2000 was toxic to the cells); after 24 hours, the cells were digested and plated into 384-well plates with a density of 25 μl, 10000 cells/well, and liquid was replaced with medium without FBS for the cells after 6-7 hours, and the cell plates were incubated overnight at 37° C. in a 5% CO2 incubator.
1) Dilution of the compound: serial dilution in 4× gradient was carried out with 100% DMSO, 10 points were diluted, the starting concentration of the to-be-tested compound was 0.5 mM (final concentration was 1) μM); 100 nl of compound solution was transferred to a 384-well cell assay plate with ECHO. […]
5) The reaction was carried out in the dark at room temperature for 60 minutes, and the fluorescence value was measured by Envision: the excitation wave was 535 nm, and the emission wave was 590 nm. […]
7) The data were analyzed with Prism. The IC50 of the sample against VAP-1 cells was calculated.

[4] = system: CCl4-induced chronic liver fibrosis male C57BL/6 model; assay: Oral CCl4-induced chronic liver fibrosis model; assay type: in vivo, C57BL/6 mice; settings: oral daily for 28 days, superior to PXS-4728A in the same dosage
Experimental: The therapeutic effect of compounds on an oral CCl4-induced chronic liver fibrosis male C57BL/6 model was tested.
Male C57BL/6 mice, 7-8 weeks old;
Experimental method: Male C57BL/6 mice were orally administered from the day CCl4 was put for modeling, and administered daily. Continuous administration was conducted for 28 days. The animals were fasted for at least 6 hours on the next day after the last administration Animal weight was measured during euthanasia and all animals were euthanized under the guidance of the KCl Animal Euthanasia SOP. Non-anticoagulant venous blood of mice was collected from the ocular venous plexus. The whole blood was allowed to stand at room temperature for 30 minutes, and centrifuged at 5000 rpm for 5 minutes, and the serum was separated and placed in a 1.5 ml EP tube and stored at −80° C. After the whole body of the animal was perfused with hypothermic saline, the liver was taken and subjected to tissue gross image acquisition. The left lobe of the liver was divided into 4 equal parts and put into 4 tissue cryotubes for liquid nitrogen freezing, and then transferred to −80° C. for storage. The rest of the liver tissue was fixed in 10% neutral formalin fixative. […] HE staining was subjected to double-blind score by two pathological readers, and the area of hepatic fibrosis was analyzed for sirius-red stained sections by digital pathology.

[5] = biological target: hERG potassium ion channel (Homo sapiens (Human), UniProt Q12809); assay: Inhibition test of hERG potassium ion channel (automatic patch clamp, CHO-hERG cells); assay type: cell-based; settings: conclusion in words
Experimental: The effect of the to-be-tested compound on the potassium ion channel of hERG was detected by a fully automatic patch clamp method.
The cells stably expressing hERG potassium channel used in the experiment were obtained from CHO-hERE of Aviva Biosciences, and CHO-hERG was cultured in 5% CO2 at 37° C.
CHO-hERG cells prepared for the experiment were cultured for at least two days, and the cell density reached 75% or more. Prior to the start of the experiment, cells were digested with TrypLE and then resuspended in extracellular fluid to collect the cells.
Extracellular fluids need to be prepared once a month. The intracellular fluid need to be subpackaged and frozen at −20° C.
The to-be-tested compound and the positive control Amitriptyline were dissolved in DMSO to a certain concentration of the stock solution, and then diluted according to different gradients, and finally added to the extracellular fluid in a certain ratio, and diluted to a concentration to be measured. Visual inspection was performed to see if there was any precipitation before the start of the experiment. Finally, the concentration of DMSO in the to-be-tested solution and the positive control Amitriptyline should not exceed 0.3%. […]
In each complete current record, based on the percentage of peak current in the negative control, the percent inhibition of the concentration of each compound can be calculated. […]

T1 sequence (Q16853 whole entry): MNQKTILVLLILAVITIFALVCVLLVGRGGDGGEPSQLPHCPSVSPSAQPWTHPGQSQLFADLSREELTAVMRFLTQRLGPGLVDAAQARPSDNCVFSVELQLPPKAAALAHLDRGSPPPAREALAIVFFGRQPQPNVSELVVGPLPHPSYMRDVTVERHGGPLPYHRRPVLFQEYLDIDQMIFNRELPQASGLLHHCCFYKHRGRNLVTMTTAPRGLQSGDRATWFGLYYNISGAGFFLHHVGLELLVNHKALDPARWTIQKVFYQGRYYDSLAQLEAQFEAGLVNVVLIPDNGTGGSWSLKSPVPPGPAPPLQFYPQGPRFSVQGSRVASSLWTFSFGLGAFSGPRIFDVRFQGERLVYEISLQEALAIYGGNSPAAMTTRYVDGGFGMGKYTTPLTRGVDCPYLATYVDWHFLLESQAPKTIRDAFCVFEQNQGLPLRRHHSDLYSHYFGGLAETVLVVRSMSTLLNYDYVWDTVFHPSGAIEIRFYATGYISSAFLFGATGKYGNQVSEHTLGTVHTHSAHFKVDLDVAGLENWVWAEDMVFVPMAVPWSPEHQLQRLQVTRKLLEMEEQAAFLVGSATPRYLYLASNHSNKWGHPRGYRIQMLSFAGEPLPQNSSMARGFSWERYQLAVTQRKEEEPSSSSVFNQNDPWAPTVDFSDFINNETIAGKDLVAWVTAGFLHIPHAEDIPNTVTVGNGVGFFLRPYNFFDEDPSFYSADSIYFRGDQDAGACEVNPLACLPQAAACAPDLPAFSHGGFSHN
hERG potassium ion channel, sequence (Q12809 whole entry): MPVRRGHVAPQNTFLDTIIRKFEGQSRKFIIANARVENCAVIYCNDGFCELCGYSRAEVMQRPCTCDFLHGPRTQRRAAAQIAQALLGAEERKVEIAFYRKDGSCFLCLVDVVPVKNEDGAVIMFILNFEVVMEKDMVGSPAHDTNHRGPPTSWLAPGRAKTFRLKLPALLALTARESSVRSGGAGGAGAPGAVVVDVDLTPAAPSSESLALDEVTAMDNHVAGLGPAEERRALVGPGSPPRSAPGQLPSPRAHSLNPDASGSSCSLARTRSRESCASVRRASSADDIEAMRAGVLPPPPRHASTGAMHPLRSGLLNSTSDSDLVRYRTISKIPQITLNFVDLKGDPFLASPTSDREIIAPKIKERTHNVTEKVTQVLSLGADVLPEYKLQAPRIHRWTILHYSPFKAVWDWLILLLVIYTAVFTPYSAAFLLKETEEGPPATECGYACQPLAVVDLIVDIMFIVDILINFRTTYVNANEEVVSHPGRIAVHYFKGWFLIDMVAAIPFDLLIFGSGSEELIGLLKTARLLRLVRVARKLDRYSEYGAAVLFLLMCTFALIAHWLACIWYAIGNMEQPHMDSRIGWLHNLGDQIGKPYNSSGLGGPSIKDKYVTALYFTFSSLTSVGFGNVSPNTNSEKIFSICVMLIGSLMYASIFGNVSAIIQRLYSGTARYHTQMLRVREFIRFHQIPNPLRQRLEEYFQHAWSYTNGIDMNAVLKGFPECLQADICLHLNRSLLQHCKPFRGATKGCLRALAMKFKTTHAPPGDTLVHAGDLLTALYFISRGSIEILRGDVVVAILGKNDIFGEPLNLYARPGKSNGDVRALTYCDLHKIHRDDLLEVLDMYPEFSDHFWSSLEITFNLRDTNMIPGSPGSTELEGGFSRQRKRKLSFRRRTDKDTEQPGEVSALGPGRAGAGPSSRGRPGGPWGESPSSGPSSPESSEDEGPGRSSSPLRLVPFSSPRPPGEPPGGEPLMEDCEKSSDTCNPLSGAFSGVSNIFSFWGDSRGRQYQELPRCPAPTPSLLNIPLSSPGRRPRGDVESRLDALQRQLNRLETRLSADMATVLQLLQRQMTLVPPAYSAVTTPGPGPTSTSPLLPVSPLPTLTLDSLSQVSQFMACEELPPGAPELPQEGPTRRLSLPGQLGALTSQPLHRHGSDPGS

Liver Concentration (@1.0 hour) [1] | Plasma Concentration (@1.0 hour) [1] | Liver Concentration/Plasma Concentration (@1.0 hour) [1] | Liver Concentration (@4.0 hour) [1] | Plasma Concentration (@4.0 hour) [1] | Liver Concentration/Plasma Concentration (@4.0 hour) [1] | IC50 [2] [nM] | IC50 [3] [nM] | Compound | effect on liver fibrosis (Sirius-Red staining) [4] | effect on liver injury (liver injury score, HE staining) [4] | inhibition of hERG potassium current [5]
13140 | 1470 | 10 | 2120 | 154 | 14 |  |  | CC(C)(C)NC(=O)c1ccc(OC/C(=C/F)CN)cc1.Cl [PXS-4728A, reference compound] |  |  | 
 |  |  |  |  |  | 1.8 | 0.2 | Cn1nc(-c2ccc(OC/C(=C/F)CN)cc2F)nc1C1CC1 [WX098] |  |  | 
13520 | 934 | 15 | 3364 | 190 | 17 |  |  | Cl.Cn1nc(-c2ccc(OC/C(=C/F)CN)cc2)nc1C(F)F [WX126] | obvious improvement effect | obvious improvement effect | weak inhibition
 |  |  |  |  |  |  |  | Cc1noc(-c2ccc(OC/C(=C/F)CN)cc2)n1.Cl [WX008] |  |  | weak inhibition
